# Literature values in patent US20240130675A1, “Methods for Treating Autism Spectrum Disorder” (The General Hospital Corporation, priority 2021, published 2024).
# Where a name gives a salt, the structure may show the parent alone.
# What was measured:
# [1] = system: older adolescents and young adults with ASDs; settings: cited from earlier work
# ASD = settings: in vivo; cited from earlier work
# youth with ASD = settings: cited from earlier work
# ASD children = settings: cited from earlier work
# ASD symptoms [2] = settings: 5-19 year-olds, four weeks; only reflected in CGI, not in ABC-CV; cited from earlier work
# ASD symptoms [3] = settings: RCT; cited from earlier work
# autism = settings: RUPP Autism Network study; cited from earlier work
structure (smiles),measurement,setting,value
N[C@@H]1CONC1=O [D-Cycloserine],"Stereotypic symptoms, Aberrant Behavior Checklist subscale 3",[1],improved stereotypic symptoms
same,Social Responsiveness Scale and Aberrant Behavior Checklist,ASD,statistically and clinically significant improvement
"CC(=O)N[C@@H](CS)C(=O)O [NAC, N-Acetylcysteine]",Social impairment,youth with ASD,no significant impact on social impairment
same,ABC irritability subscale score vs placebo,ASD children,significant improvement
NC12CC3CC(CC(C3)C1)C2 [amantadine hydrochloride],ASD symptoms vs placebo,ASD symptoms [2],improvement in ASD symptoms
Nc1nnc(-c2cccc(Cl)c2Cl)c(N)n1 [lamotrigine],"Improvements vs placebo on Autism Behavior Checklist, Aberrant Behavior Checklist, Vineland, PL-ADOS, CARS",ASD symptoms [3],no significant differences in improvements
Cc1nc2n(c(=O)c1CCN1CCC(c3noc4cc(F)ccc34)CC1)CCCC2 [risperidone],"Response rate, treatment group",autism,69.4%
